Experimental findings from ChEMBL document CHEMBL1201862, “PubChem BioAssay data set” (2004) are described below.

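Dose response: 5 concentrations. Exposure: 48 h. Format: 96-well plates. Endpoint: linear interpolation; highest concentration if not reached. At the GI50, growth is halved.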 Calls of active or inactive are those of the source. Rule as the data show it: active = GI50 up to about 1.1 µM and inactive = higher.

Among the test systems are EKVX; HCC 2998; HL-60; MOLT-4; Malme-3M; OVCAR-4; SF-295; SF-539; SK-MEL-28; SK-MEL-5; SNB-19; TK-10; U-251; UACC-257; HCT-116; SR.
Common to all, as to test: DTP human tumour cell line panel, 48 h

`O=C(O[C@H]1[C@@H]2C=CO[C@@H](OC3OC(CO)C(O)C(O)C3O)[C@@H]2[C@@]2(CO)O[C@@H]12)c1ccc(O)c(O)c1` (stereo partly drawn): the GI50 in the experiment on EKVX, with HCC 2998, in the experiment with HL-60, in the experiment with MOLT-4, with Malme-3M and in the experiment with OVCAR-4 was > 100 µM (inactive) each time. The GI50 with SF-295, with SF-539, in the experiment on SK-MEL-28, in the experiment on SK-MEL-5, in the experiment with SNB-19 and with TK-10 was > 100 µM (inactive) throughout. In addition, the GI50 with U-251 and in the experiment with UACC-257 was > 100 µM (inactive) each time.
Consider `Cc1ccc(C(=O)/C=C/c2ccccc2Cl)cc1`, for which the GI50 in the experiment with EKVX is 19.2 µM (inactive); with HCC 2998, 18.5 µM (inactive); with HCT-116 it was 11.8 µM (inactive); in the experiment on HL-60 it was 16.4 µM (inactive); in the experiment with MOLT-4, 19.6 µM (inactive); in the experiment on Malme-3M it was 23.5 µM (inactive). Further, the GI50 in the experiment with OVCAR-4 was 17.1 µM (inactive); in the experiment with SF-295 it was 19.2 µM (inactive); in the experiment with SF-539, 21.2 µM (inactive); in the experiment on SK-MEL-28 it was 14.2 µM (inactive); in the experiment on SK-MEL-5, 20.9 µM (inactive); in the experiment on SNB-19, 18.4 µM (inactive). Further, the results for the GI50 in the experiment with TK-10, in the experiment with U-251 and with UACC-257 were 21.1 µM (inactive), 14.7 µM (inactive) and 15.4 µM (inactive), respectively.
In the case of `Cc1nc(C(N)=S)sc1C(=O)/C=C/c1c(O)ccc2ccccc12`, the GI50 in the experiment on EKVX is > 100 µM (inactive); with HCC 2998, > 100 µM (inactive); in the experiment with HCT-116 it was 80.2 µM (inactive); with HL-60, 22.1 µM (inactive); in the experiment on MOLT-4 it was 21.2 µM (inactive); with Malme-3M it was > 90.2 µM (inactive). Besides, the GI50 was > 100 µM (inactive) in the experiment with OVCAR-4; 51.5 µM (inactive) with SF-295; 70.1 µM (inactive) in the experiment with SF-539; > 71.6 µM (inactive) with SK-MEL-28; 32.4 µM (inactive) in the experiment on SK-MEL-5; > 100 µM (inactive) in the experiment with SNB-19. The GI50 with TK-10 is > 100 µM (inactive); with U-251 it was > 100 µM (inactive); in the experiment on UACC-257, > 75.9 µM (inactive).
As to `COc1cc(CNC2c3cc4c(cc3C(c3cc(OC)c(OC)c(OC)c3)[C@H]3C(=O)OCC23)OCO4)cc(OC)c1OC` (stereo partly drawn), the GI50 in the experiment with HCC 2998 was 0.305 µM (active); in the experiment with HCT-116 it was 0.245 µM (active); with HL-60, 0.223 µM (active); in the experiment on MOLT-4, 0.367 µM (active); in the experiment on Malme-3M it was > 100 µM (inactive); with SF-295, 0.137 µM (active). Besides, the GI50 with SF-539 was 0.191 µM (active); in the experiment with SK-MEL-5, 0.216 µM (active); with SNB-19, 0.272 µM (active); in the experiment with SR, 0.314 µM (active); with TK-10 it was > 100 µM (inactive); in the experiment with U-251 it was 0.318 µM (active). Moreover, in the experiment with UACC-257, the GI50 is > 100 µM (inactive).
Consider `C/C(CC(=O)CCC(=O)Nc1cccc(C(F)(F)F)c1)=N\NC(=O)NN`, for which the GI50 with EKVX, with HCC 2998, with HCT-116, in the experiment on HL-60, with MOLT-4 and with Malme-3M was > 100 µM (inactive) throughout. Besides, the GI50 in the experiment with OVCAR-4, with SF-295, with SF-539, in the experiment with SK-MEL-28, in the experiment with SK-MEL-5 and in the experiment with SNB-19 was > 100 µM (inactive) throughout. The GI50 in the experiment on TK-10, with U-251 and in the experiment on UACC-257 was > 100 µM (inactive) in each case.
Consider `CC(=O)OC1C=CC2CCN3C(=O)c4cc5c(cc4[C@H]1C23)OCO5` (stereo partly drawn), for which the GI50 in the experiment on EKVX is > 100 µM (inactive); with HCC 2998 it was > 10 µM (inactive); in the experiment on HCT-116 it was > 100 µM (inactive); with HL-60, > 100 µM (inactive); in the experiment on MOLT-4, > 100 µM (inactive); with Malme-3M, > 100 µM (inactive). The GI50 in the experiment with SF-295, with SF-539, with SK-MEL-28, with SNB-19, in the experiment with SR and in the experiment on TK-10 was > 100 µM (inactive) throughout. The GI50 in the experiment with U-251 and with UACC-257 was > 100 µM (inactive) each time.
Regarding `NC1=NN(c2ccccc2)C(=O)C1C(=O)C(=O)Nc1cccc(C(F)(F)F)c1` (stereo not drawn), the GI50 is > 100 µM (inactive) in the experiment on EKVX; > 100 µM (inactive) with HCC 2998; > 100 µM (inactive) in the experiment with HCT-116; 89.3 µM (inactive) in the experiment on HL-60; > 100 µM (inactive) in the experiment with MOLT-4; > 100 µM (inactive) with Malme-3M. For the same molecule, the GI50 with OVCAR-4, in the experiment with SF-295, in the experiment with SF-539, in the experiment with SK-MEL-5, in the experiment with SNB-19 and with TK-10 was > 100 µM (inactive) throughout. The GI50 with U-251 and in the experiment with UACC-257 was > 100 µM (inactive) each time.
With `CC(=O)OCC1OC(n2c(=O)n(-c3ccccc3)c(=O)c3ccccc32)C(OC(C)=O)C(OC(C)=O)C1OC(C)=O` (stereo not drawn), the GI50 with EKVX was > 100 µM (inactive); in the experiment with HCC 2998, > 100 µM (inactive); with HCT-116 it was 96.6 µM (inactive); with HL-60, > 100 µM (inactive); with MOLT-4, > 100 µM (inactive); with Malme-3M, > 100 µM (inactive). Besides, the GI50 with OVCAR-4, in the experiment with SF-295, in the experiment with SF-539, in the experiment with SK-MEL-28, with SK-MEL-5 and in the experiment with SNB-19 was > 100 µM (inactive) throughout. In addition, the GI50 in the experiment with TK-10, in the experiment on U-251 and with UACC-257 was > 100 µM (inactive) throughout.
For the molecule `O=c1c2ccccc2[nH]c2ccc3c(Cl)n[nH]c3c12`, the GI50 with EKVX was 47.3 µM (inactive); in the experiment with HCC 2998 it was 35.5 µM (inactive); in the experiment with HCT-116, 31.8 µM (inactive); in the experiment on HL-60, 40.1 µM (inactive); in the experiment with MOLT-4 it was 9.95 µM (inactive); in the experiment with Malme-3M it was 19.1 µM (inactive). For the same molecule, the GI50 with OVCAR-4 was 59.4 µM (inactive); with SF-295 it was 37.2 µM (inactive); with SK-MEL-28, 87.5 µM (inactive); with SK-MEL-5, 40.9 µM (inactive); in the experiment with SNB-19 it was 32.7 µM (inactive); in the experiment on SR, 36.1 µM (inactive). Moreover, the figures for the GI50 in the experiment with TK-10, with U-251 and in the experiment with UACC-257 were 23.8 µM (inactive), 53.6 µM (inactive) and 37.2 µM (inactive), respectively.
Regarding `Cc1ccc(C2=C(c3ccccc3)C(O)(c3ccc(C)cc3)C(c3ccccc3)=C2c2ccc(C)cc2)cc1`, the GI50 in the experiment on EKVX was 72.1 µM (inactive); in the experiment on HCC 2998, > 100 µM (inactive); with HCT-116, > 100 µM (inactive); in the experiment with HL-60, 14.4 µM (inactive); in the experiment on MOLT-4, > 100 µM (inactive); with Malme-3M, > 100 µM (inactive). Also, the GI50 in the experiment with OVCAR-4, in the experiment on SF-295, in the experiment with SF-539, in the experiment with SK-MEL-28, with SK-MEL-5 and with SNB-19 was > 100 µM (inactive) throughout. Also, the GI50 in the experiment with TK-10, with U-251 and in the experiment with UACC-257 was > 100 µM (inactive) each time.
As for `Cc1cc(NS(=O)(=O)c2ccc(Nc3c4ccccc4nc4c(C(=O)NCCN(C)C)ccc(Cl)c34)cc2)no1`, the GI50 was 8.34 µM (inactive) in the experiment on EKVX; 3.21 µM (inactive) in the experiment with HCC 2998; 3.3 µM (inactive) in the experiment with HCT-116; 1.14 µM (inactive) with HL-60; 0.28 µM (active) with MOLT-4; 4.09 µM (inactive) in the experiment with OVCAR-4. Further, the GI50 in the experiment on SF-295 was 3.8 µM (inactive); in the experiment with SF-539, 3.14 µM (inactive); in the experiment with SK-MEL-28, 4.41 µM (inactive); in the experiment on SK-MEL-5, 2 µM (inactive); in the experiment with SNB-19 it was 2.67 µM (inactive); with SR it was 0.37 µM (active). For the same molecule, the GI50 in the experiment with TK-10 is 13.9 µM (inactive); in the experiment with U-251 it was 2.42 µM (inactive).
As for `CCCCCCCCCCNCCSSCc1ccc(Cl)cc1`, the GI50 was 3.06 µM (inactive) in the experiment on EKVX; 1.89 µM (inactive) in the experiment with HCC 2998; 1.73 µM (inactive) in the experiment on HCT-116; 1.75 µM (inactive) with HL-60; 0.439 µM (active) in the experiment with MOLT-4; 2.95 µM (inactive) in the experiment on Malme-3M. For the same molecule, the GI50 was 1.71 µM (inactive) with OVCAR-4; 1.91 µM (inactive) in the experiment on SF-295; 1.95 µM (inactive) in the experiment on SF-539; 0.366 µM (active) in the experiment with SK-MEL-28; 0.509 µM (active) in the experiment on SK-MEL-5; 1.71 µM (inactive) in the experiment with SNB-19. For the same molecule, the GI50 is 2.18 µM (inactive) with TK-10, 3.27 µM (inactive) in the experiment with U-251 and 0.714 µM (active) in the experiment with UACC-257.
Take `CC1=C(/C(C)=N/NC(=O)c2ccccc2O)C(C)C(/C(C)=N/NC(=O)c2ccccc2O)=C(C)N1`: the GI50 is 14.7 µM (inactive) with EKVX; 18.5 µM (inactive) in the experiment on HCT-116; 5.04 µM (inactive) in the experiment on HL-60; 5.09 µM (inactive) with MOLT-4; 29.4 µM (inactive) with Malme-3M; 11.5 µM (inactive) with OVCAR-4. Further, the GI50 in the experiment with SF-539 is 20 µM (inactive); in the experiment on SK-MEL-28 it was 21.8 µM (inactive); in the experiment with SK-MEL-5 it was 19.8 µM (inactive); in the experiment with SNB-19 it was 30.5 µM (inactive); in the experiment with SR, 23.8 µM (inactive); with TK-10, 18.8 µM (inactive). For the same molecule, the GI50 was 28.7 µM (inactive) in the experiment with U-251 and 23.5 µM (inactive) with UACC-257.
